Test results: the supplement of paper PMC11208160

Assay: recombinant barcode read abundance after kanamycin selection (control-corrected) (log10(CPM+1)); higher = more efficient recombination; sequences stand for … in AGTGCAGAGAAAATCGGCCAGTTTTCTCTGCCTGCAGTCCGCATGCCGT…AGATTTATGCAGCGGACTGCCTTTCTCCCAAAGTGATAAACCGGACAGTATCATGGACCGGTTTTCCCGGTAATCCGTATTTGCAAGGTTGGTTTCACT; site = the 11-nt target
Procedure: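 Pooled E. coli target-specificity screen for the IS621 bridge recombinase. Each library plasmid pairs an 11-nt target (CT core) with a bridge RNA whose target-binding loop (9-nt LTG + 4-nt RTG) is reprogrammed; the rest of the 177-nt WT IS621 bridge RNA scaffold is fixed. The plasmid is co-electroporated with a WT donor plasmid; recombinase is induced with 0.1 mM IPTG and recombinants are selected on kanamycin. Recombinant barcodes are sequenced, converted to CPM, averaged over two biological replicates and corrected by the unselected control CPM. Molecule = full bridge RNA written as DNA: LTG = specificity nt 1-9, RTG = reverse complement of specificity nt 8-11, in the WT scaffold.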
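Note: IS621 recombinase and bridge RNA in Escherichia coli cells.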

Sequence	recombinant barcode read abundance (log10)
AACCTTACTTGGGTTCTAACCTGTTGCCT (site AACCTTACTAG)	0.631
AACCTTACTTGGGTTCTAACCTGTTGCCT (site ACCCTTACTAG)	0.122
AACCTTACTTGGGTTCTAACCTGTTGCCT (site AGCCTTACTAG)	0.0388
AACCTTACTTGGGTTCTAACCTGTTGCCT (site ATCCTTACTAG)	0.0245
AACGAGTCTTGGGTTCTAACCTGTTGCCT (site AACGAGTCTAG)	1.03
AACGAGTCTTGGGTTCTAACCTGTTGCCT (site ACCGAGTCTAG)	0.152
AACGAGTCTTGGGTTCTAACCTGTTGCCT (site AGCGAGTCTAG)	0.0187
AACGAGTCTTGGGTTCTAACCTGTTGCCT (site ATCGAGTCTAG)	0.244
AACTAAACTTGGGTTCTAACCTGTTGCCT (site AACTAAACTAG)	1.02
AACTAAACTTGGGTTCTAACCTGTTGCCT (site AACTCAACTAG)	0.0768
AACTAAACTTGGGTTCTAACCTGTTGCCT (site AACTGAACTAG)	0.181
AACTAAACTTGGGTTCTAACCTGTTGCCT (site AACTTAACTAG)	0.0783
AACTATCCTTGGGTTCTAACCTGTTGCAT (site AACTATCCTAT)	0.227
AACTATCCTTGGGTTCTAACCTGTTGCAT (site AACTCTCCTAT)	0.109
AACTATCCTTGGGTTCTAACCTGTTGCAT (site AACTGTCCTAT)	0.00638
AACTATCCTTGGGTTCTAACCTGTTGCAT (site AACTTTCCTAT)	0.196
AAGACAACTTGGGTTCTAACCTGTTGCGG (site AAGACAACTCC)	1.64
AAGACAACTTGGGTTCTAACCTGTTGCGG (site TGCCTGCCTAG)	0.042
AAGACTCCTTGGGTTCTAACCTGTTGCCT (site AAGACTCCTAG)	0.824
AAGACTCCTTGGGTTCTAACCTGTTGCCT (site AAGTCTCCTAG)	0.0612
AAGAGCACTTGGGTTCTAACCTGTTGCCT (site AAGAGCACTAG)	1.17

Sequence	recombinant barcode read abundance (log10)
AAGAGCACTTGGGTTCTAACCTGTTGCCT (site CAGAGCACTAG)	0.0257
AAGAGCACTTGGGTTCTAACCTGTTGCCT (site GAGAGCACTAG)	0.0862
AAGAGCACTTGGGTTCTAACCTGTTGCCT (site TAGAGCACTAG)	0.315
AAGATAGCTTGGGTTCTAACCTGTTGCCT (site AAGAAAGCTAG)	0.192
AAGATAGCTTGGGTTCTAACCTGTTGCCT (site AAGACAGCTAG)	0.147
AAGATAGCTTGGGTTCTAACCTGTTGCCT (site AAGAGAGCTAG)	0.164
AAGATAGCTTGGGTTCTAACCTGTTGCCT (site AAGATAGCTAG)	1.59
AAGCCCACTTGGGTTCTAACCTGTTGCGG (site AAGCCCACTCC)	2.28
AAGCCCACTTGGGTTCTAACCTGTTGCGG (site CGCGTTGCTAG)	0.561
AAGCCGCCTTGGGTTCTAACCTGTTGCTT (site AAGCCGCCTAA)	0.906
AAGCCGCCTTGGGTTCTAACCTGTTGCTT (site TCAATAGCTGT)	0.35
AAGCTCCCTTGGGTTCTAACCTGTTGCCT (site AAGCTCCCTAG)	1.6
AAGCTCCCTTGGGTTCTAACCTGTTGCCT (site ACACTCCCTAG)	0.242
AAGGCCGCTTGGGTTCTAACCTGTTGCCT (site AAGGACGCTAG)	1.37
AAGGCCGCTTGGGTTCTAACCTGTTGCCT (site AAGGCCGCTAG)	1.79
AAGGCCGCTTGGGTTCTAACCTGTTGCCT (site AAGGGCGCTAG)	0.161
AAGGCCGCTTGGGTTCTAACCTGTTGCCT (site AAGGTCGCTAG)	0.259
AAGGCGCCTTGGGTTCTAACCTGTTGCCT (site AAGGCGCCTAG)	0.806
AAGGCGCCTTGGGTTCTAACCTGTTGCCT (site ACGGCGCCTAG)	0.11
AAGGCGCCTTGGGTTCTAACCTGTTGCCT (site AGGGCGCCTAG)	0.128
AAGGCGCCTTGGGTTCTAACCTGTTGCCT (site ATGGCGCCTAG)	0.135

Sequence	recombinant barcode read abundance (log10)
AAGGGCTCTTGGGTTCTAACCTGTTGCTT (site AAGGGCTCTAA)	2.72
AAGGGCTCTTGGGTTCTAACCTGTTGCTT (site GTCTCTCCTCT)	0.129
AAGGTCCCTTGGGTTCTAACCTGTTGCGG (site AAGGTCCCTCC)	3.32
AAGGTCCCTTGGGTTCTAACCTGTTGCGG (site TAGGTCCCTTC)	0.0703
AAGGTGTCTTGGGTTCTAACCTGTTGCCT (site AAAGTGTCTAG)	1.97
AAGGTGTCTTGGGTTCTAACCTGTTGCCT (site AACGTGTCTAG)	0.736
AAGGTGTCTTGGGTTCTAACCTGTTGCCT (site AAGGTGTCTAG)	3.29
AAGGTGTCTTGGGTTCTAACCTGTTGCCT (site AATGTGTCTAG)	0.45
AAGTCCACTTGGGTTCTAACCTGTTGCTT (site AAGTCCACTAA)	0.856
AAGTCCACTTGGGTTCTAACCTGTTGCTT (site TAGTCCACTTA)	0.093
AAGTGGTCTTGGGTTCTAACCTGTTGCTA (site AAGTGGTCTTA)	1.46
AAGTGGTCTTGGGTTCTAACCTGTTGCTA (site TGAGTCCCTCT)	0
AAGTTGTCTTGGGTTCTAACCTGTTGCGT (site AAGTTGTCTAC)	2.77
AAGTTGTCTTGGGTTCTAACCTGTTGCGT (site CAGTTGTCTAG)	0.0897
AATACCACTTGGGTTCTAACCTGTTGCCT (site AATACCACTAG)	0.576
AATACCACTTGGGTTCTAACCTGTTGCCT (site AATCGCACTAG)	0.186
AATAGGACTTGGGTTCTAACCTGTTGCGC (site AATAGGACTGC)	1.76
AATAGGACTTGGGTTCTAACCTGTTGCGC (site ATTAGGACTTC)	0.0105
AATATAGCTTGGGTTCTAACCTGTTGCTA (site AATATAGCTTA)	0.0685
AATATAGCTTGGGTTCTAACCTGTTGCTA (site TTCCCCACTAG)	0
AATCGAGCTTGGGTTCTAACCTGTTGCGG (site AATCGAGCTCC)	1.82

Sequence	recombinant barcode read abundance (log10)
AATCGAGCTTGGGTTCTAACCTGTTGCGG (site TCCGCTTCTAA)	0.0864
AATCTCCCTTGGGTTCTAACCTGTTGCCT (site AATATGCCTAG)	0.298
AATCTCCCTTGGGTTCTAACCTGTTGCCT (site AATCTCCCTAG)	1.07
AATGAATCTTGGGTTCTAACCTGTTGCCT (site AATGAATCTAG)	0.312
AATGAATCTTGGGTTCTAACCTGTTGCCT (site AATGCATCTAG)	0.255
AATGAATCTTGGGTTCTAACCTGTTGCCT (site AATGGATCTAG)	0.53
AATGAATCTTGGGTTCTAACCTGTTGCCT (site AATGTATCTAG)	0.301
AATGGGCCTTGGGTTCTAACCTGTTGCCT (site AATGGGACTAG)	0.131
AATGGGCCTTGGGTTCTAACCTGTTGCCT (site AATGGGCCTAG)	0.273
AATGGGCCTTGGGTTCTAACCTGTTGCCT (site AATGGGGCTAG)	0.179
AATGGGCCTTGGGTTCTAACCTGTTGCCT (site AATGGGTCTAG)	0.201
AATGGGGCTTGGGTTCTAACCTGTTGCTG (site AATGGGGCTCA)	1.15
AATGGGGCTTGGGTTCTAACCTGTTGCTG (site TATGGAGCTCA)	0.0813
AATGTACCTTGGGTTCTAACCTGTTGCCT (site AATGTACCTAG)	1.89
AATGTACCTTGGGTTCTAACCTGTTGCCT (site CATGTACCTAG)	0.45
AATGTACCTTGGGTTCTAACCTGTTGCCT (site GATGTACCTAG)	0.0545
AATGTACCTTGGGTTCTAACCTGTTGCCT (site TATGTACCTAG)	1.27
AATGTGTCTTGGGTTCTAACCTGTTGCCT (site AAAGTGTCTAG)	0.663
AATGTGTCTTGGGTTCTAACCTGTTGCCT (site AACGTGTCTAG)	1.47
